Results published in publication PMC6271530, “Design and Optimisation of Bioactive Cyclic Peptides: Generation of a Down-Regulator of TNF Secretion” (Molecules, 2014).
Entries after “also recorded” stand apart in the source; their conditions may differ.

What was measured:
[1] = test system: CTB-stimulated J774A.1 cells; type: cell-based, murine
[2] = test system: LPS-stimulated J774A.1 cells; experiment: TNF secretion by LPS-stimulated J774A.1 cells; type: cell-based, murine; settings: for Change in level of secretion of TNF into the supernatant: LPS-stimulated J774A.1 cells, overnight exposure to cyclic peptide, TNF by sandwich ELISA, very high levels of TNF generated
[3] = test system: cytokine activated T-cells (Tck) co-cultured with monocytes; experiment: TNF secretion in T cell/monocyte co-culture (cognate assay); type: cell-based, human
Experimental: (§1) A methodology described by Brennan et al. was employed. Peripheral blood lymphocytes (>95%) are enriched by Centrifugal Elutriation from plateletphoresis blood cones. CD45RO^+ Tcells (>98% purity) isolated by negative selection (Miltenyi, Bisley, UK) are re-suspended to a density of 1 × 10^6 cells/mL in RPMI 1640 containing 10% heat-inactivated AB^+ Human Serum. Cytokines are added to the cells at the following concentrations, hIL-2 @25 ng/mL, hIL-6 @100 ng/mL and hTNFα @25 ng/mL, all purchased from Peprotech UK (London, UK). The cells are incubated at 37 °C, 5% CO2 for 8 d after which they are pelleted twice at 1500 rpm for 5 min, counted and then used in a cognate experiment.
(§2) A methodology described by Brennan et al. is employed as follows. Elutriation-enriched (>95%) autologous monocytes are cultured at 1 × 10^6 cells/mL (100 microlitres) in RPMI 1640 containing 5% heat-inactivated FCS, in a 96-well, round-bottomed culture plate. After adjusting the cell number, cytokine activated T-cells (Tck) are added to the monocytes at a 5:1 ratio, the peptides are then added into the appropriate wells, with a final volume of 200 μL/well. Cells are co-cultured at 37 °C, 5% CO2 for 18 h after which the supernatants are removed and assayed for cytokine production by ELISA.

[4] = test system: LPS-stimulated J774A.1 cells; experiment: IL-6 secretion by LPS-stimulated J774A.1 cells; type: cell-based, murine; settings: different concentrations, formulated with cyclodextrin in the absence of transcutol
[5] = test system: cytokine activated T-cells (Tck) co-cultured with monocytes; experiment: IL-6 secretion in the cognate assay; type: cell-based, human; settings: cognate model; 10 and 1 μg/mL peptide, relative to corresponding vehicle controls; formulated with cyclodextrin in the absence of transcutol
Experimental: as §1, §2

[6] = test system: cells of the cytokine secretion experiments (replicates of each group); experiment: MTT viability assay; type: cell-based; settings: MTT 4 h at 37 °C, read at 620 nm
Experimental: After removal of the supernatants 100 μL of RPMI 1640 is added to each well of the plate. 10 μL of MTT dye (stock 5 mg/mL) is added to each well and incubated for 4 h at 37 °C 5% CO2, the MTT crystals are dissolved with SDS after which the plates are read at 620 nm.

[7] = test system: cytokine activated T-cells (Tck) co-cultured with monocytes; experiment: IL-1 levels in the cognate model; type: cell-based, human
Experimental: as §1, §2

[8] = test system: cytokine activated T-cells (Tck) co-cultured with monocytes; experiment: IL-10 levels in the cognate model; type: cell-based, human
Experimental: as §1, §2

[9] = Light scattering / homogeneity of the peptide preparation in aqueous medium; type: physicochemical; settings: peptide dissolved in HFIP or transcutol in the presence of β-hydroxypropyl cyclodextrin, then aqueous medium; all levels of cyclodextrin employed
Description: In order to avoid problems with aggregation, which, it was feared, may affect the long-term stability of the product, a number of methodologies were employed to disperse the peptide prior to introduction into aqueous medium. Dissolution in HFIP, followed by drying down and addition of water worked reasonably well, as did dissolving in transcutol at high concentration, then adding to water. […] Detailed methodology is given in the Experimental section.

lymphocytes = experiment: TNF secretion by lymphocytes; type: cell-based; settings: evidence to be presented separately

For “cyclo(-DF-R-Nle-S-DF-R-Nle-S-) [Lex 2.3]”, which “Change in level of secretion of TNF into the supernatant” value (“Change in level” for short) [1] is on record?
Its value is “insufficient”.

What does the source list for “cyclo(DF-S-LC10-R-DF-S-LC10-R) [Lex 2.6]”?
Change in level of secretion of TNF into the supernatant [1]: inhibits secretion of TNF; Dependence of TNF down-regulating activity on cyclodextrin:peptide ratio ([2]; LPS-stimulated J774A.1 cells overnight, formulated with beta hydroxypropyl cyclodextrin at different weight ratios, down to 1.25 (molar ratio 1.3)): independent of the ratio of peptide to cyclodextrin; Change in level of secretion of TNF into the supernatant [2]: most efficacious structure tested; also recorded: inhibits secretion of TNF; Effect on TNF secretion of cells in the cognate assay ([3]; 10 µg/mL, formulated with cyclodextrin in the presence of transcutol (panel a), 18 h co-culture, ELISA): inhibitory activity is seen clearly; Inhibition of TNF secretion elicited by modified T-cell phenotype ([3]; summary statement): inhibits secretion of TNF; Effect on IL-6 secretion [4]: Clear dose-related inhibition of IL-6 secretion; Effect on IL-6 secretion [5]: reductions in IL-6 secretion; Cell metabolic activity (MTT test) [6]: no reduction in cell metabolic activity; Effect on levels of IL-1 [7]: No effect; Effect on levels of IL-10 [8]: No effect; Light scattering of the preparation (homogeneity) [9]: significant reduction in light scattering; Effect on TNF secretion by lymphocytes (lymphocytes): no effect on secretion by lymphocytes

For “cyclo(-DF-S-Nle-R-DF-S-Nle-R-) [Lex 2.4]”, which “Change in level” value [1] is on record?
Its value is “insufficient”.

With “cyclo(DF-R-LC10-S-DF-R-LC10-S) [Lex 2.5]” as the substance, how does the “Change in level” value [2] read?
Its value is “strongly dose-related stimulatory activity”.

For cyclo(-DF-R-Σ-S-DF-R-Σ-S-) [Lex 2.1], which “Change in level” value [1] is on record?
The value was “efficacy in terms of down-regulating the secretion of TNF”.

Which “Change in level” value [1] does the source give for cyclo(-DF-S-Σ-R-DF-S-Σ-R-) [Lex 2.2] here?
The value was “efficacy in terms of down-regulating the secretion of TNF; also recorded: more efficacious”.
